Test system: Mitochondria-located protein genes
Assay: DNA chip mRNA expression in yeast, mitochondria-located protein genes (Table 2)
Type: cell-based, Saccharomyces cerevisiae S288C
Details: cells incubated two hours with the chemical substance
In short: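 In this screen, yeast in logarithmic growth are challenged for two hours with a toxic substance at a non-lethal inhibitory concentration. Their mRNA, converted to Cy3- or Cy5-labeled cDNA, hybridizes at 65° C. to a chip spanning every yeast gene, and expression is expressed as a ratio to untreated cells.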

CN(C)C(=S)SSC(=S)N(C)C [(10), Tetramethylthiuram disulfide]
The level of expressed mRNA in the presence of chemical substance/The level of expressed mRNA in the absence of chemical substance (yeast gene YJR121W): 1.3 | The level of expressed mRNA in the presence of chemical substance/The level of expressed mRNA in the absence of chemical substance (yeast gene YKL003C): 2.2 | The level of expressed mRNA in the presence of chemical substance/The level of expressed mRNA in the absence of chemical substance (yeast gene YKL016C): 1.8 | The level of expressed mRNA in the presence of chemical substance/The level of expressed mRNA in the absence of chemical substance (yeast gene YKL141W): 0.5 | The level of expressed mRNA in the presence of chemical substance/The level of expressed mRNA in the absence of chemical substance (yeast gene YKL142W): 5.9 | The level of expressed mRNA in the presence of chemical substance/The level of expressed mRNA in the absence of chemical substance (yeast gene YKL148C): 1.7 | The level of expressed mRNA in the presence of chemical substance/The level of expressed mRNA in the absence of chemical substance (yeast gene YKL170W): 1.1 | The level of expressed mRNA in the presence of chemical substance/The level of expressed mRNA in the absence of chemical substance (yeast gene YKL194C): 1.4 | The level of expressed mRNA in the presence of chemical substance/The level of expressed mRNA in the absence of chemical substance (yeast gene YKR066C): 2.4 | The level of expressed mRNA in the presence of chemical substance/The level of expressed mRNA in the absence of chemical substance (yeast gene YLL041C): 0.8 | The level of expressed mRNA in the presence of chemical substance/The level of expressed mRNA in the absence of chemical substance (yeast gene YLR038C): 0.9 | The level of expressed mRNA in the presence of chemical substance/The level of expressed mRNA in the absence of chemical substance (yeast gene YLR259C): 2.6 | The level of expressed mRNA in the presence of chemical substance/The level of expressed mRNA in the absence of chemical substance (yeast gene YLR295C): 1.2 | The level of expressed mRNA in the presence of chemical substance/The level of expressed mRNA in the absence of chemical substance (yeast gene YLR304C): 2.2 | The level of expressed mRNA in the presence of chemical substance/The level of expressed mRNA in the absence of chemical substance (yeast gene YLR348C): 1.3 | The level of expressed mRNA in the presence of chemical substance/The level of expressed mRNA in the absence of chemical substance (yeast gene YLR395C): 0.9 | The level of expressed mRNA in the presence of chemical substance/The level of expressed mRNA in the absence of chemical substance (yeast gene YML054C): 1.8 | The level of expressed mRNA in the presence of chemical substance/The level of expressed mRNA in the absence of chemical substance (yeast gene YML120C): 1.5 | The level of expressed mRNA in the presence of chemical substance/The level of expressed mRNA in the absence of chemical substance (yeast gene YML129C): 2.2 | The level of expressed mRNA in the presence of chemical substance/The level of expressed mRNA in the absence of chemical substance (yeast gene YMR023C): 2.6 | The level of expressed mRNA in the presence of chemical substance/The level of expressed mRNA in the absence of chemical substance (yeast gene YMR035W): 1.6 | The level of expressed mRNA in the presence of chemical substance/The level of expressed mRNA in the absence of chemical substance (yeast gene YMR083W): 1.1 | The level of expressed mRNA in the presence of chemical substance/The level of expressed mRNA in the absence of chemical substance (yeast gene YMR089C): 2.5 | The level of expressed mRNA in the presence of chemical substance/The level of expressed mRNA in the absence of chemical substance (yeast gene YMR152W): 1.3 | The level of expressed mRNA in the presence of chemical substance/The level of expressed mRNA in the absence of chemical substance (yeast gene YMR203W): 1.2 | The level of expressed mRNA in the presence of chemical substance/The level of expressed mRNA in the absence of chemical substance (yeast gene YMR267W): 0.8 | The level of expressed mRNA in the presence of chemical substance/The level of expressed mRNA in the absence of chemical substance (yeast gene YNL055C): 1.0 | The level of expressed mRNA in the presence of chemical substance/The level of expressed mRNA in the absence of chemical substance (yeast gene YNL071W): 1.2 | The level of expressed mRNA in the presence of chemical substance/The level of expressed mRNA in the absence of chemical substance (yeast gene YNL073W): 1.8 | The level of expressed mRNA in the presence of chemical substance/The level of expressed mRNA in the absence of chemical substance (yeast gene YNL104C): 2.0 | The level of expressed mRNA in the presence of chemical substance/The level of expressed mRNA in the absence of chemical substance (yeast gene YNL256W): 0.6 | The level of expressed mRNA in the presence of chemical substance/The level of expressed mRNA in the absence of chemical substance (yeast gene YOL096C): 1.4 | The level of expressed mRNA in the presence of chemical substance/The level of expressed mRNA in the absence of chemical substance (yeast gene YOR020C): 2.6 | The level of expressed mRNA in the presence of chemical substance/The level of expressed mRNA in the absence of chemical substance (yeast gene YOR037W): 1.0 | The level of expressed mRNA in the presence of chemical substance/The level of expressed mRNA in the absence of chemical substance (yeast gene YOR100C): 2.6 | The level of expressed mRNA in the presence of chemical substance/The level of expressed mRNA in the absence of chemical substance (yeast gene YOR130C): 1.7 | The level of expressed mRNA in the presence of chemical substance/The level of expressed mRNA in the absence of chemical substance (yeast gene YOR142W): 1.5 | The level of expressed mRNA in the presence of chemical substance/The level of expressed mRNA in the absence of chemical substance (yeast gene YOR150W): 1.8 | The level of expressed mRNA in the presence of chemical substance/The level of expressed mRNA in the absence of chemical substance (yeast gene YOR176W): 0.5 | The level of expressed mRNA in the presence of chemical substance/The level of expressed mRNA in the absence of chemical substance (yeast gene YOR187W): 0.8 | The level of expressed mRNA in the presence of chemical substance/The level of expressed mRNA in the absence of chemical substance (yeast gene YOR316C): 2.0 | The level of expressed mRNA in the presence of chemical substance/The level of expressed mRNA in the absence of chemical substance (yeast gene YPL040C): 1.2 | The level of expressed mRNA in the presence of chemical substance/The level of expressed mRNA in the absence of chemical substance (yeast gene YPL134C): 0.8 | The level of expressed mRNA in the presence of chemical substance/The level of expressed mRNA in the absence of chemical substance (yeast gene YPL135W): 2.8 | The level of expressed mRNA in the presence of chemical substance/The level of expressed mRNA in the absence of chemical substance (yeast gene YPL215W): 1.2 | The level of expressed mRNA in the presence of chemical substance/The level of expressed mRNA in the absence of chemical substance (yeast gene YPL262W): 5.8 | The level of expressed mRNA in the presence of chemical substance/The level of expressed mRNA in the absence of chemical substance (yeast gene YPR024W): 1.7 | The level of expressed mRNA in the presence of chemical substance/The level of expressed mRNA in the absence of chemical substance (yeast gene YPR037C): 1.3 | The level of expressed mRNA in the presence of chemical substance/The level of expressed mRNA in the absence of chemical substance (yeast gene YPR047W): 1.9 | The level of expressed mRNA in the presence of chemical substance/The level of expressed mRNA in the absence of chemical substance (yeast gene YPR134W): 2.3

From patent publication US8192962B2, “Processes for detecting toxic substances” (Daikin Industries, Ltd., priority 2001, dated 2012)
